Data reported in patent publication US20170073337A1, “DIHYDROTHIAZINE AND DIHYDROOXAZINE DERIVATIVES HAVING BACE1 INHIBITORY ACTIVITY” (Shionogi & Co., Ltd., priority 2014, published 2017).
≈ marks a conversion by molar mass, not a printed value. Where two headings read alike, the source gives them in different places.

Experiments:
CYP1A2 = molecular target: T1, CYP1A2 (Homo sapiens, UniProt P05177); assay: CYP inhibition test (CYP1A2); type: in vitro ADME; conditions: pooled human liver microsomes; 7-ethoxyresorufin O-deethylation
T1 construct: The commercially available pooled human liver microsomes are used as an enzyme resource; from tissue; host or cells: pooled human liver microsomes
T1 sequence (P05177 1-516): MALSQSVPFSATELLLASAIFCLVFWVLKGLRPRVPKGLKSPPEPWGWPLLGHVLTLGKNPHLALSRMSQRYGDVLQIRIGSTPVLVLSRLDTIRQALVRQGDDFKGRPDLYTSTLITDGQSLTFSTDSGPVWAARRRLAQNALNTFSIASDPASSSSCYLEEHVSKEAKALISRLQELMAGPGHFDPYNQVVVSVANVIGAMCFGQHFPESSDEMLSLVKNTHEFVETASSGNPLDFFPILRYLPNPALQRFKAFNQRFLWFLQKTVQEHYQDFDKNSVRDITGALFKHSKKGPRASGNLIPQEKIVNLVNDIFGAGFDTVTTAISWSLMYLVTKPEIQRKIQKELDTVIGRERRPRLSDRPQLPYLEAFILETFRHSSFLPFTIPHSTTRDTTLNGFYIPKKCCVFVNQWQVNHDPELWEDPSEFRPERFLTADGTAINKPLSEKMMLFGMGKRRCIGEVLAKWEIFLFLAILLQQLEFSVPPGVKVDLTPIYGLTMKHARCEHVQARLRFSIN
Outline: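 Inhibition of CYP1A2 was measured in commercially available pooled human liver microsomes (0.2 mg protein/mL) using 7-ethoxyresorufin O-deethylation with 0.5 μmol/L ethoxyresorufin. Test compound at 1, 5, 10, 20 μmol/L in […] Hepes buffer was incubated at 37° C. after NADPH addition; methanol/acetonitrile=1/1 (v/v) stopped the reaction, and resorufin was read fluorescently.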

CYP2C19 = molecular target: T2, CYP2C19 (Homo sapiens, UniProt P33261); assay: CYP inhibition test (CYP2C19); type: in vitro ADME; conditions: pooled human liver microsomes; mephenytoin 4′-hydroxylation
T2 construct: The commercially available pooled human liver microsomes are used as an enzyme resource; from tissue; host or cells: pooled human liver microsomes
T2 sequence (P33261 whole entry): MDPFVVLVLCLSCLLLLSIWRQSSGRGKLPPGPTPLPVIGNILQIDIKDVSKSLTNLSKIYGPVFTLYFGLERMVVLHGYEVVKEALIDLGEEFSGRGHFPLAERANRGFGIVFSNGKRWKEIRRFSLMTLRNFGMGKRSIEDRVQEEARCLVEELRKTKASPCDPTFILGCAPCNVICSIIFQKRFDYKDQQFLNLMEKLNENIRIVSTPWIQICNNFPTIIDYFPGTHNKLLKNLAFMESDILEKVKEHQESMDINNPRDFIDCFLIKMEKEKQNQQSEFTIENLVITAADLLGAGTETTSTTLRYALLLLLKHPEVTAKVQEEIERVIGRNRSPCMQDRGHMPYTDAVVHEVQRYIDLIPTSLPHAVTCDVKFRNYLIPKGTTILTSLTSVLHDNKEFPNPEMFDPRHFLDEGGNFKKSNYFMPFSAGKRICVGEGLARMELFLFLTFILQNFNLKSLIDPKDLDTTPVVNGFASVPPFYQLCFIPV
Outline: (§1)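 Pooled human liver microsomes (0.2 mg protein/mL) with compound at 1, 5, 10 and 20 μmol/L and NADPH, at 37 °C. Marker substrates: dextromethorphan 5 μmol/L (2D6), terfenadine 1 μmol/L (3A4), S-mephenytoin 50 μmol/L (2C19), tolbutamide 100 μmol/L (2C9). Metabolites were measured by LC/MS/MS, and IC50 was derived by logistic fit of remaining activity against the DMSO control.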

CYP3A4 = molecular target: T3, CYP3A4 (Homo sapiens, UniProt P08684); assay: CYP inhibition test (CYP3A4); type: in vitro ADME; conditions: pooled human liver microsomes; terfenadine hydroxylation
T3 construct: The commercially available pooled human liver microsomes are used as an enzyme resource; from tissue; host or cells: pooled human liver microsomes
T3 sequence (P08684 whole entry): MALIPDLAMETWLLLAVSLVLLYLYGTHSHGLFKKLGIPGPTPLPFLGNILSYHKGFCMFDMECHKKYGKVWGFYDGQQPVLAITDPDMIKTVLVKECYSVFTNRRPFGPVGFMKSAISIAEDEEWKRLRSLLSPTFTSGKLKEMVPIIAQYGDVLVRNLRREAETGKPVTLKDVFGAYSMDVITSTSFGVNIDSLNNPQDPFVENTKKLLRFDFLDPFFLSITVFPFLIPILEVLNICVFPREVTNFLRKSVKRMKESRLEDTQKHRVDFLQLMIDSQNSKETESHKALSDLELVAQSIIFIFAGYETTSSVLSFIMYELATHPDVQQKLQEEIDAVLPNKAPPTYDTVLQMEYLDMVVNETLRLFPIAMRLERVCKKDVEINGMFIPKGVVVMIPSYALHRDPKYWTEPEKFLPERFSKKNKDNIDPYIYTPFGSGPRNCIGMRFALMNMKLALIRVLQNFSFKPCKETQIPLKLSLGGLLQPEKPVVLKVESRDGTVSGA
Outline: as §1

Solubility test = type: physicochemical; conditions: for solubility kinetic at 1 h: kinetic from dmso stock; for solubility kinetic at 16 h: solubility in JP 2nd fluid B, 1% DMSO, *2: shaken for 1 hour at room temperature
Outline: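 Dissolved concentration determined by LC/MS or SPE/MS (absolute calibration) in diluted filtrates, after 2 μL of 10 mmol/L DMSO stock was added to 198 μL JP 1st or JP 2nd fluid and equilibrated either 1 h with shaking at room temperature or 16 h standing at 25 °C.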

[1] = molecular target: T4, human ether-a-go-go related gene (hERG) channel (Homo sapiens, UniProt Q12809); assay: hERG test; type: cell-based; conditions: % inhibition of IKr tail peak current at 3 uM; CHO cells expressing hERG
T4 construct: expressed in transfected cells; host or cells: CHO cells
T4 sequence (Q12809 whole entry): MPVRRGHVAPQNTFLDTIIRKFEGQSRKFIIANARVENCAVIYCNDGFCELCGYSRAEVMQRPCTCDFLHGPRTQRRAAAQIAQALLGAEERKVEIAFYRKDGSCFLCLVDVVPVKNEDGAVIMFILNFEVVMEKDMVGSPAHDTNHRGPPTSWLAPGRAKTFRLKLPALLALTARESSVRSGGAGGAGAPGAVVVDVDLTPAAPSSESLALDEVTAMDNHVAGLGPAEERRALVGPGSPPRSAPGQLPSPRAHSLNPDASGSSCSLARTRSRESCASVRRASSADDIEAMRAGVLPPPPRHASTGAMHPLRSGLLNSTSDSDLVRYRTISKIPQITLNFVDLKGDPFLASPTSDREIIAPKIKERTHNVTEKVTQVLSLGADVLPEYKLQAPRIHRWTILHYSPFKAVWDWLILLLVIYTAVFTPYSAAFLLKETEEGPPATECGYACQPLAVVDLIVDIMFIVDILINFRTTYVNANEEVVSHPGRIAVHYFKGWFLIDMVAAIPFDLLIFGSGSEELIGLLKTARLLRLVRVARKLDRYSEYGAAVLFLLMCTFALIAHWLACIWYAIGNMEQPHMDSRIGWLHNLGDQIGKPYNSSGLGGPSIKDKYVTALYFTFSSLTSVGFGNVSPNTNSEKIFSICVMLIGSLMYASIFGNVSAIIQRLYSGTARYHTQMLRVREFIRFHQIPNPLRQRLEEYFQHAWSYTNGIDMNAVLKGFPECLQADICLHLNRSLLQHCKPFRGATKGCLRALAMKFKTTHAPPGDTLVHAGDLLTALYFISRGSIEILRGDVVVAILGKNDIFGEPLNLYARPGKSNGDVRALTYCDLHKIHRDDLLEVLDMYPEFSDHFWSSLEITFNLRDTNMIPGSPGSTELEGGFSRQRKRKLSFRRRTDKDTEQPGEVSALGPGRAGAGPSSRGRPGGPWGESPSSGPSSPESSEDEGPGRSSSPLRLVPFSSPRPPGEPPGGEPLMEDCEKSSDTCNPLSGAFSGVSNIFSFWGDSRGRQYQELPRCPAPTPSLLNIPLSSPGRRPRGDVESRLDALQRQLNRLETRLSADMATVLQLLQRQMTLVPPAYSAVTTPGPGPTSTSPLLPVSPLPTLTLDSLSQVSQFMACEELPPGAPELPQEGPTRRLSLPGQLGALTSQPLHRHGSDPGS
Outline: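 Automated whole-cell patch clamp was run on CHO cells carrying human hERG, held at −80 mV. Current was recorded during the −50 mV repolarization (2 s) that followed a 2 s +20 mV step, after a −50 mV leak pulse.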

Metabolic stability test = type: in vitro ADME; conditions: human liver microsomes, 37° C., 30 minutes, NADPH
Outline: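 Parent compound was measured by LC/MS/MS or SPE/MS after a methanol/acetonitrile quench and reported as % remaining, with the 0 min sample set to 100%. Incubations ran 30 min at 37 °C in pH 7.4 Tris buffer containing pooled human liver microsomes at 0.5 mg protein/mL and 1 mmol/L NADPH.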

[2] = JP 1st fluid, pH 1.2, simulated gastric fluid, read-out: JP1
[3] = JP 2nd fluid B, pH 6.8, aqueous buffer, read-out: JP2_μM

For `COc1ccc(C(=O)Nc2ccc(F)c([C@@]3(C)N=C(N)S[C@H](C)[C@@H]3F)c2)nc1` [Compound I-50], the IC50 (CYP1A2) was ≥ 20 µM, the IC50 (CYP2C19) was ≥ 20 µM and the IC50 (CYP3A4) was ≥ 20 µM. For the same compound, the solubility kinetic at 1 h (Solubility test; [2]) was > 50 µM, the solubility kinetic at 16 h (Solubility test; read-out: JP2_μM) was >50 µM and the “hERG_3 uM_%” value [1] was 34.3%.
With `COc1cnc(C(=O)Nc2ccc(F)c([C@@]3(C)N=C(N)SCC34CC(F)(F)C4)c2)cn1` [Compound I-55] the IC50 (CYP1A2) was ≥ 20 µM, the IC50 (CYP2C19) was ≥ 20 µM and the IC50 (CYP3A4) was ≥ 10 µM. For the same compound, the solubility kinetic at 1 h (Solubility test; [2]) was > 50 µM, the solubility kinetic at 16 h (Solubility test; read-out: JP2_μM) was >50 µM and the “hERG_3 uM_%” value [1] was 39.5%.
With `C[C@]1(c2cc(NC(=O)c3ccc(C#N)cn3)ccc2F)N=C(N)SCC12CC(F)(F)C2` [Compound I-59] the IC50 (CYP1A2) was ≥ 20 µM, the IC50 (CYP2C19) was ≥ 20 µM and the solubility kinetic at 1 h (Solubility test; [2]) was > 50 µM. For the same compound, the solubility kinetic at 16 h (Solubility test; read-out: JP2_μM) was >50 µM and the remaining % (Metabolic stability test) was 66.8%.
In the case of `C[C@H]1SC(N)=N[C@](C)(c2cc(NC(=O)c3cnc(OCF)cn3)ccc2F)C12CC(F)(F)C2` [Compound I-62], the IC50 (CYP1A2) is reported as ≥ 20 µM, the IC50 (CYP2C19) is reported as ≥ 20 µM and the solubility kinetic at 1 h (Solubility test; [2]) is reported as > 50 µM. For the same compound, the solubility kinetic at 16 h (Solubility test; read-out: JP2_μM) was >50 µM and the “hERG_3 uM_%” value [1] was 29.6%.
With `C[C@H]1SC(N)=N[C@](C)(c2cc(NC(=O)c3ccc(F)cn3)ccc2F)C12CC(F)(F)C2` [Compound I-63] the IC50 (CYP1A2) was ≥ 20 µM, the IC50 (CYP2C19) was ≥ 20 µM and the solubility kinetic at 1 h (Solubility test; [2]) was > 50 µM. The solubility kinetic at 16 h (Solubility test; read-out: JP2_μM) was >50 µM, the remaining % (Metabolic stability test) was 75.8% and the “hERG_3 uM_%” value [1] was 53.2%.
With `CC#CCOc1cnc(C(=O)Nc2ccc(F)c([C@@]3(C)N=C(N)O[C@H](C(C)(F)F)[C@@H]3F)c2)cn1` [Compound I-76] the IC50 (CYP1A2) was ≥ 20 µM, the IC50 (CYP2C19) was ≥ 10 µM and the solubility kinetic at 1 h (Solubility test; [2]) was > 50 µM. For the same compound, the solubility kinetic at 1 h (Solubility test; [3]) was 8.2 µM (≈ 3.93 µg/mL) and the “hERG_3 uM_%” value [1] was 5.8%.
In the case of `COCC(F)(F)[C@H]1OC(N)=N[C@](C)(c2cc(NC(=O)c3cnc(OCF)cn3)ccc2F)[C@H]1F` [Compound I-79], the IC50 (CYP1A2) is reported as ≥ 20 µM, the IC50 (CYP2C19) is reported as ≥ 20 µM and the IC50 (CYP3A4) is reported as ≥ 10 µM. The solubility kinetic at 1 h (Solubility test; [2]) was > 50 µM, the solubility kinetic at 16 h (Solubility test; read-out: JP2_μM) was >50 µM and the “hERG_3 uM_%” value [1] was 7.8%.
For `C[C@]1(c2cc(NC(=O)c3ccc(C#N)cn3)ccc2F)N=C(N)O[C@H](C2(F)CC2)[C@@H]1F` [Compound I-96], the IC50 (CYP1A2) was ≥ 20 µM, the IC50 (CYP2C19) was ≥ 20 µM and the IC50 (CYP3A4) was ≥ 20 µM. For the same compound, the solubility kinetic at 1 h (Solubility test; [2]) was 45.8 µM (≈ 19.7 µg/mL), the solubility kinetic at 1 h (Solubility test; [3]) was > 50 µM and the remaining % (Metabolic stability test) was 101%.
With `C[C@]1(c2cc(NC(=O)c3ccc(OCF)cn3)ccc2F)N=C(N)O[C@H](C2(F)CC2)[C@@H]1F` [Compound I-101] the IC50 (CYP1A2) was ≥ 20 µM, the IC50 (CYP2C19) was ≥ 20 µM and the IC50 (CYP3A4) was ≥ 20 µM. The solubility kinetic at 1 h (Solubility test; [2]) was > 50 µM, the solubility kinetic at 16 h (Solubility test; read-out: JP2_μM) was >50.0 µM and the remaining % (Metabolic stability test) was 91.8%.
With `COc1cnc(C(=O)Nc2cccc([C@@]3(C)N=C(N)S[C@H](C)[C@@H]3F)c2)cn1` [Compound I-103] the IC50 (CYP1A2) was ≥ 20 µM, the IC50 (CYP2C19) was ≥ 20 µM and the IC50 (CYP3A4) was ≥ 20 µM. The solubility kinetic at 1 h (Solubility test; [2]) was 49.4 µM (≈ 19.2 µg/mL), the solubility kinetic at 1 h (Solubility test; [3]) was > 50 µM and the remaining % (Metabolic stability test) was 78.3%.
With `C[C@H]1SC(N)=N[C@](C)(c2cccc(NC(=O)c3cnc(OCF)cn3)c2)[C@H]1F` [Compound I-104] the IC50 (CYP1A2) was ≥ 20 µM, the IC50 (CYP2C19) was ≥ 20 µM and the IC50 (CYP3A4) was ≥ 20 µM. For the same compound, the solubility kinetic at 1 h (Solubility test; [2]) was 40.6 µM (≈ 16.5 µg/mL), the solubility kinetic at 1 h (Solubility test; [3]) was > 50 µM and the remaining % (Metabolic stability test) was 77.7%.
In the case of `C[C@H]1SC(N)=N[C@](C)(c2cccc(NC(=O)c3cnc(C(F)F)cn3)c2)[C@H]1F` [Compound I-106], the IC50 (CYP1A2) is reported as ≥ 20 µM, the IC50 (CYP2C19) is reported as ≥ 20 µM and the IC50 (CYP3A4) is reported as ≥ 20 µM. The solubility kinetic at 1 h (Solubility test; [2]) was 42 µM (≈ 17.2 µg/mL), the solubility kinetic at 1 h (Solubility test; [3]) was > 50 µM and the remaining % (Metabolic stability test) was 84.1%.
